According to US20210029995A1, “Use of Volatile Organic Compounds as Pesticides” (Certis Europe B.V., priority 2018, published 2021):
Counter-ions that a name gives are not always drawn.

Assays:
S. feltiae [1] = conditions: 20 μl VOC, checked after 24 hr, sealed Petri dish
Experimental: (§1) Authenticated M. brunneum VOCs, along with other selected VOCs, were screened for nematicidal activity against S. feltiae and H. bacteriophora. […] Each Petri dish (90 mm) contained 20 ml of the water agar medium. The inoculated plates were kept in darkness for 3 hr at room temperature to acclimatize. The plates were then exposed to 20 μl of the VOC dispensed from a 8 mm paper disc (Whatman™, 0.34 mm thickness) positioned on a 25×25 mm glass coverslip placed in the centre of the Petri dish lid (FIG. 1A). The plates were sealed with a double layer of Parafilm and were kept in the dark at 21° C. and checked after 24 hr. The number of live and dead nematodes were counted with the aid of a stereo binocular microscope (30×).
(§2) The deposition was predetermined using bacterial cultures highly sensitive to these VOCs. The edge of the circular zone of inhibition delineated the area of activity.
(§3) Mean of mortality was calculated from the total number of alive and dead individuals across all circles. There were five replicates per treatment and the whole experiment was repeated twice.

H. bacteriophora [2] = conditions: 20 μl VOC, checked after 24 hr, sealed Petri dish
Experimental: as §1, §2, §3

H. bacteriophora [3] = experiment: Dose mortality assay for the EPNs (Example 2); assay type: in vivo, Heterorhabditis bacteriophora
Experimental: (§4) All statistical analyses were carried out using RStudio statistics package (RStudio, Inc. version 1.0.153), using “MASS” and “multcomp” packages. For all mortality data, differential sensitivity between EPN species and/or insect species and differential compound potency were determined using a generalised linear model (GLM) and Tukey's range test in post-hoc analysis. LD50 values were calculated using a GLM and the “dose.p” function within the “MASS” package. An ANOVA was carried out on the chemotactic responses of EPNs to VOCs, with the strength of response compared at each time and concentration. Welch's t-tests were used to compare means of mortality results in the final EPNs efficacy assay.
(§5) Dose mortality assays were performed using 3-octanone and 1-octen-3-ol. The assays were performed as described in Example 1, except that the EPNs (S. carpocapsae (Sc), S. feltiae (Sf) and H. bacteriophora (Hb)) were exposed to different doses of the VOCs (5, 10, 15 and 20 μl). The mortality was recorded as described previously at 3, 6, 12 and 24 hr post treatment. Controls included EPNs only (no VOC) and EPNs+1-octene. The results are shown in FIG. 2 (results 3 hr post treatment), 3 (results 6 hr post treatment), 4 (results 12 hr post treatment) & 5 (results 24 hr post treatment).

[4] = system: root knot nematode M. hapla; conditions: for nematicidal activity against M. hapla: 5 μl and 10 μl
Experimental: (§6) Authenticated M. brunneum VOCs, along with other selected VOCs, were screened for nematicidal activity against S. feltiae and H. bacteriophora. 750 μl of nematode suspension containing approximately 5000 Us in tap water, was spread uniformly over the water agar surface (2.6% w/v agar, 5 mM potassium phosphate pH 6, 1 mM CaCl2 and 1 mM MgSO4) of a Petri dish. Each Petri dish (90 mm) contained 20 ml of the water agar medium. The inoculated plates were kept in darkness for 3 hr at room temperature to acclimatize. The plates were then exposed to 20 μl of the VOC dispensed from a 8 mm paper disc (Whatman™, 0.34 mm thickness) positioned on a 25×25 mm glass coverslip placed in the centre of the Petri dish lid (FIG. 1A). The plates were sealed with a double layer of Parafilm and were kept in the dark at 21° C. and checked after 24 hr. The number of live and dead nematodes were counted with the aid of a stereo binocular microscope (30×).
A study was conducted to determine the susceptibility of the root knot nematode M. hapla, a major crop pest, to 3-octanone and 1-octen-3-ol. Single egg-mass populations of M. hapla were kindly provided by Dr Ivan Grove (Harper Adams University/Crop and Environment Sciences). Four-week-old tomato plants (Solanum lycopersicum cv. Rutgers) were grown in a greenhouse. Soil in each pot was infested by pipetting egg masses of M. hapla suspended in tap water and cultivated at approximately 25±2° C. in a greenhouse. Six months following inoculation, tomato plants were uprooted and root systems were carefully washed with running tap water to remove adhered soil. The roots were cut into small pieces and extracted by the Baermann funnel method for 3-5 days to obtain live nematodes. The inoculum concentration included a range of life stages and was adjusted to approximately 2000 individuals using tap water by the aid of a haemocytometer. A mortality assay was carried out as described in Examples 1 and 2 above. The assay was carried out at two doses of the VOCs (5 μl and 10 μl) and the mortality was recorded at 3, 6 and 24 hr post treatment. There were three replicates per treatment and the whole experiment was repeated twice.

S. carpocapsae = experiment: Dose mortality assay for the EPNs (Example 2); assay type: in vivo, Steinernema carpocapsae; conditions: for mortality: after 24 hr
Experimental: as §4, §5

[5] = system: S. carpocapsae, S. feltiae and H. bacteriophora; experiment: Dose mortality assay, statement for all three EPNs; assay type: in vivo; conditions: for mortality: all three EPNs, after 24 hr
Experimental: as §6
Dose mortality assays were performed using 3-octanone and 1-octen-3-ol. The assays were performed as described in Example 1, except that the EPNs (S. carpocapsae (Sc), S. feltiae (Sf) and H. bacteriophora (Hb)) were exposed to different doses of the VOCs (5, 10, 15 and 20 μl). The mortality was recorded as described previously at 3, 6, 12 and 24 hr post treatment. Controls included EPNs only (no VOC) and EPNs+1-octene.

S. feltiae [6] = experiment: Dose mortality assay for the EPNs (Example 2); assay type: in vivo, Steinernema feltiae
Experimental: as §4, §5

Row | Molecule | Mortality (%) (Mean ± SE) S. feltiae (Sf) (S. feltiae [1]) | Mortality (%) (Mean ± SE) H. bacteriophora (Hb) (H. bacteriophora [2]) | other results
1 | CC(C)CCO [Isoamyl alcohol] | 20.8 ± 3 | 9.7 ± 2.1 | 
2 | Farnesene | 43 ± 1.1 | 7.8 ± 3.1 | 
3 | C=CC(O)CCCCC (centres unmarked) [1-octen-3-ol] | 100 | 91.6±2.1 | LD50 (H. bacteriophora [3]; 6 hr): 21.72 µL; nematicidal activity against M. hapla [4]: strong nematicidal activity; mortality response ([4]; M. hapla, after 3 hr and 6 hr, 5 and 10 μl): dose dependent response; dead nematodes ([4]; M. hapla, after 24 hr, both doses (5 μl and 10 μl)): over 90%; LD50 (S. carpocapsae; 24 hr): 41.01 µL; mortality [5]: very high; LD50 (S. feltiae [6]; 6 hr): 10.56 µL
4 | C=CCCCCCC [1-octene, reference compound] | 20.1 ± 3 | 19.4 ± 3.8 | mortality (S. carpocapsae): ≤ 50%; mortalities ([5]; EPNs, over time (3-24 hr)): extremely low; mortality (S. feltiae [6]; after 24 hr): ≤ 50%
5 | COC(=O)CC(C)C [Methyl isovalerate] | 38.1 ± 7 | 55 ± 2.6 | 
6 | CCCCCCCCCCC [Undecane] | 25.4 ± 5.6 | 7.5 ± 2.7 | 
7 | CC(C)CCOC=O [Isoamyl formate] | 58 | 46.6±1.8 | 
8 | C=C(C)[C@H]1CC=C(C)CC1 [(R)-(+)-Limonene] | 16.7 ± 3.2 | 5.9 ± 1.9 | 
9 | CCCCCCCCCCCCC [Tridecane] | 32.3 ± 5 | 4.1 ± 1.6 | 
10 | CC(O)C(C)O (centres unmarked) [2,3-Butanediol] | 12.5 ± 7.2 | 11.4 ± 2.3 | 
11 | CCCCCC(=O)CC [3-octanone] | 100 | 100 | LD50 (H. bacteriophora [3]; 3 hr): 5.68 µL; mortality (H. bacteriophora [3]; time points later than 3 hr): exceeded 90%; nematicidal activity against M. hapla [4]: strong nematicidal activity; mortality ([4]; in vivo): 100%; LD50 (S. carpocapsae; 12 hr): 94.88 µL; mortality (S. carpocapsae; all doses (5-20 μl)): all nematodes were dead at all doses; mortality [5]: very high; mortality (S. feltiae [6]; at all time points (3, 6, 12, 24 hr)): > 99%; LD50 (μl) (S. feltiae [6]; no LD50 calculated): a (>99% mortality from 3 hr)
